Here are results for one compound from US8263649B2, “Benzofuran type derivatives, a composition comprising the same for treating or preventing cognitive dysfunction and the use thereof” (Medifron DBT Co., Ltd., priority 2006, dated 2012).

The target in one experiment is T1, beta amyloid 1-42 (Homo sapiens, UniProt P05067).
T1 construct: Synthetic beta amyloid 1-42 (BACHEM); purchased BACHEM; host or cells: synthetic peptide
Put plainly: Inhibition test of beta amyloid aggregation (Thioflavin T fluorescence). The experiment is classed as biochemical. The conditions noted are these: FIG. 1. The method, then:
Synthetic beta amyloid 1-42 (BACHEM) was dissolved in DMSO in order to 250 μm solution and diluted with PBS into 1/10 on fluorescent black plate to induce aggregation. By comparing with inhibition activity of the tanshinone compounds prepared in Example 1 on beta amyloid aggregation, the test sample showing more than 50% inhibition activity at 10 μg/ml was chosen to use and added to react for 1 hour at room temperature. ThT (Thioflavin T) was diluted with 50 mM glycine buffer solution and the diluted solution was added to each well by 150 μl/well. The absorbance was determined by microplate reader (SAFIRE, TECAN) at 450 nm excitation wavelength/480 nm emission wavelength and the inhibition activity of the test sample on beta amyloid aggregation was transformed into IC50.

The test system of experiment [1] is ICR mouse administrated aggregated beta amyloid 1-42. Description: AD acute model experiment - passive avoidance test. The experiment is classed as in vivo. Here is the method: For passive avoidance test, male ICR mouse weighing 25 g purchased from Samtaco Co. was bred with five mice per cage and the cage was kept with following condition maintaining the temperature of 22±2° C. and the relative humidity of […] under the regularly controlled light/dark condition with an interval of 12 hours.
Synthetic beta amyloid 1-42 (BACHEM) was dissolved in DMSO in order to be 250 μm solution and diluted with PBS to […] and aggregated at 37° C. for four days (Passive Avoidance test) or six days (Y maze test).
Aggregated beta amyloid 1-42 was administrated into the mice according to the procedure disclosed in the literature (Lausen & Belknap, J. Pharmacol. Methods, 16 pp 355-357, 1986).
[…] beta amyloid 1-42 was administrated into the 2.4 mm depth of bregma region with 50 μl of Hamilton micro-syringe equipped with 26-gauge needle. The behavior tests were divided into Y maze test and PA (passive avoidance) test after the beta amyloid administration. […]
During the first acquisition trial, each mouse was placed in the lighted compartment; as soon as they entered the dark compartment, the door was closed, and they received an electric shock through the grid floor (0.6 Ma, 3 s). […] 24 hours after the training trial, the mice were again placed in the lighted compartment and the time until they re-entered the dark compartment was measured (step-through latency). […]

The next experiment concerns A 42. Put plainly: ELISA of beta-amyloid in brain of transgenic mice (A 42). In kind it is in vivo, mouse. The conditions noted are these: APPswe mice treated for 4 months. Here is the method: (§1) 13 months old dementia model male mice expressing APPswe was used in the experiment and the mice was divided into two groups, i.e., control group consisting of 2 mice and test groups consisting of 4 mice. Each mouse had been fed with the feed mixed with 3 mg of compound IIb everyday for 4 months.
(§2) At the end of behavior test, the brain of mouse was delivered and the left hemisphere was frozen to be used as a cryo-section material. The remaining right hemisphere was used to measure the formation of beta-amyloid according to the procedure disclosed in the literature (J. Neurosci, 21(12), pp 4183-4187, 2001). […]
(§3) The amount of beta-amyloid in the brains of mice was determined by […] ELISA method according to the manual provided from Biosource Co and ELISA kit (KHB 3482, Biosource Co.) was used in the experiment. […] The level of color reaction was determined at 450 nm using by spectrophotometer and the absolute amount of beta-amyloid in the samples was transformed by comparing with standard value. The brain of the mice treated with the compound 18b for 4 months was delivered and the amount of beta-amyloid in supernatant obtained from the dissolved brain tissue was determined according to ELISA method.
(An ELISA detects its analyte on a solid surface through an enzyme-linked reagent.)

The test system of a further experiment is A 40. Description: ELISA of beta-amyloid in brain of transgenic mice (A 40). The conditions noted are these: APPswe mice treated for 4 months; no significance statistically; FIG. 13. In kind it is in vivo, mouse. The method, then: as §1, §2, §3
A further experiment concerns beta amyloid plaque. Put plainly: Congo Red staining of beta amyloid plaque in brain sections of transgenic mice. The experiment is classed as in vivo, mouse. The conditions noted are these: FIG. 14.

Each structure is given as a SMILES string.

T1 sequence (P05067 672-713): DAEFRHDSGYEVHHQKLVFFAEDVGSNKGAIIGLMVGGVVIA

For `COCCCc1ccc2oc(-c3ccc(OC)c(OC)c3)cc2c1` [Compound 18b, 2-(3,4-dimethoxy-phenyl)-5-(3-methoxy-propyl)-benzofuran], the “inhibitory effect on the aggregation of beta amyloid” value against beta amyloid 1-42 is on record as “most potent inhibitory effect”. Further, the “recovering effect on memory learning damaged by beta-amyloid (passive avoidance, step-through latency)” value in experiment [1] (mice, oral, three days, FIG. 4) is “potent recovering effect”. Also, in experiment [1] (treatment group with more than 100 mg/kg, FIG. 5), the “effect on the memory learning capacity (passive avoidance), best dose group” value is given as “most excellent effect”. The “change of the amount of A 42 in brain (ELISA)” value in the experiment on A 42 is recorded as “no difference”. The “amount of A 40 in brain (ELISA)” value with A 40 is listed as “slightly reduced”. Also, the “numbers, size, and area of plaque in brain” value in the experiment on beta amyloid plaque is recorded as “significantly reduced”.
